According to patent US20190233906A1, “MUTANT STRAINS OF STAPHYLOCOCCUS AUREUS WITH MULTIPLE INACTIVATED TCS SYSTEMS” (priority 2015, published 2019):
Where two headings read alike, the source gives them in different places. Marks after values point to notes of the source that are not given here.

Assays:
S. aureus 8325 = assay type: cell-based, Staphylococcus aureus
Protocol: (§1) Antibiotic sensitivity tests were performed at the University Clinic of Navarra. Antibiotics routinely used in clinic for treatment of S. aureus infections were tested by VITEK 2 system. • Growth Kinetics Analysis

S. aureus MW2 = assay type: cell-based, Staphylococcus aureus; conditions: strain MW2
Protocol: as §1

S. aureus MW2 ΔXV = assay: Antimicrobial susceptibility test (VITEK 2 system); assay type: cell-based, Staphylococcus aureus; conditions: for Antimicrobial susceptibility (R/S) / MIC, Minimal inhibitory concentration: strain MW2 ΔXV; for Susceptibility of MW2 ΔXV mutant compared with parental strain: MW2 ΔXV vs MW2; on Antimicrobial susceptibility (R/S): key: R: resistant; S: susceptible
Protocol: as §1

S. aureus 8325 ΔXV = assay: Antimicrobial susceptibility test (VITEK 2 system); assay type: cell-based, Staphylococcus aureus; on Antimicrobial susceptibility (R/S): key: R: resistant; S: susceptible
Protocol: as §1

[1] = test system: ArlR response regulator of the arlRS two-component system of S. aureus MW2
[2] = test system: ArlR D52A (non-phosphorylatable ArlR allele)
arlR-dependent protein A = assay: Protein A expression by Western blotting on stimulation of GraS; assay type: cell-based, Staphylococcus aureus; conditions: 50 μg of colistin
Protocol: Overnight cultures of the strains were diluted in TSB-gluc to an OD650nm=0.1 and 50 μl of the diluted cultures were mixed with 1950 μl of chemically defined medium HHWm (Hussain-Hastings-White modified medium) (Toledo-Arana et al., 2005) to inoculate sterile 24-well polystyrene microtitre plates (Costar). Plates were incubated at 37° C. for 24 hours, trying to mimic biofilm forming conditions. […] of bacterial cultures were centrifuged and pellets were resuspended in 60 μl PBS. Then, 2 μl of Lysostaphin 1 mg/ml (Sigma) and 3 μl of DNase I 1 mg/ml (Sigma) were added. After 2 h of incubation at 37° C. cell lysates were centrifuged and supernatants were collected. Protein concentration was determined with the Bio-Rad protein assay (Bio-Rad). Samples were adjusted to 3-5 μg of total protein and one volume of Laemmli buffer was added. Total protein extracts were denatured by boiling at 100° C. for 5 min. Proteins were separated on 10% SDS-polyacrylamide gels and stained with 0.25% Coomassie brilliant blue R250 (Sigma) as loading controls. For Western blotting, proteins were transferred onto Hybond-ECL nitrocellulose membranes (Amersham Biosciences) by semi-dry electroblotting. […] Protein A was detected with the SuperSignal West Pico Chemiluminescent Substrate (Thermo Scientific). • Construction of the Bap-Snap-ClfA Quimeric Protein and Expression in S. aureus ΔXVI
Wherever Antimicrobial susceptibility (R/S) is given: key: R: resistant; S: susceptible.

Compound: CC(=O)O[C@H]1C[C@@]2(C)[C@@H](C[C@@H](O)[C@H]3[C@@]4(C)CC[C@@H](O)[C@@H](C)[C@@H]4CC[C@@]32C)/C1=C(\CCC=C(C)C)C(=O)O [Fusidic acid]
- Antimicrobial susceptibility (R/S) (S. aureus 8325; strain 8325): S
- Antimicrobial susceptibility (R/S) (S. aureus MW2): S
- Antimicrobial susceptibility (R/S) (S. aureus MW2 ΔXV): S
- Antimicrobial susceptibility (R/S) (S. aureus 8325 ΔXV; strain 8325 ΔXV): S

Compound: C[C@H]1COc2c(N3CCN(C)CC3)c(F)cc3c(=O)c(C(=O)O)cn1c23 [Levofloxacin]
- Antimicrobial susceptibility (R/S) (S. aureus 8325; strain 8325): S
- Antimicrobial susceptibility (R/S) (S. aureus MW2): S
- MIC, Minimal inhibitory concentration (S. aureus MW2): (≤0.25)^a
- Antimicrobial susceptibility (R/S) (S. aureus MW2 ΔXV): S
- MIC, Minimal inhibitory concentration (S. aureus MW2 ΔXV): (≤0.12)^a
- Antimicrobial susceptibility (R/S) (S. aureus 8325 ΔXV; strain 8325 ΔXV): S

Compound: CC(=O)NC[C@H]1CN(c2ccc(N3CCOCC3)c(F)c2)C(=O)O1 [Linezolid]
- Antimicrobial susceptibility (R/S) (S. aureus 8325; strain 8325): S
- Antimicrobial susceptibility (R/S) (S. aureus MW2): S
- MIC, Minimal inhibitory concentration (S. aureus MW2): (2)^a
- Susceptibility of MW2 ΔXV mutant compared with parental strain (S. aureus MW2 ΔXV): more susceptible
- Antimicrobial susceptibility (R/S) (S. aureus MW2 ΔXV): S
- MIC, Minimal inhibitory concentration (S. aureus MW2 ΔXV): (1)^a
- Antimicrobial susceptibility (R/S) (S. aureus 8325 ΔXV; strain 8325 ΔXV): S

Compound: C/C(=C\C(=O)OCCCCCCCCC(=O)O)C[C@@H]1OC[C@H](C[C@@H]2O[C@H]2[C@@H](C)[C@H](C)O)[C@@H](O)[C@H]1O [Mupirocin]
- Antimicrobial susceptibility (R/S) (S. aureus 8325; strain 8325): S
- Antimicrobial susceptibility (R/S) (S. aureus MW2): S
- Antimicrobial susceptibility (R/S) (S. aureus MW2 ΔXV): S
- Antimicrobial susceptibility (R/S) (S. aureus 8325 ΔXV; strain 8325 ΔXV): S

Compound: O=C1CN(/N=C/c2ccc([N+](=O)[O-])o2)C(=O)N1 [Nitrofurantoin]
- Antimicrobial susceptibility (R/S) (S. aureus 8325): S
- Antimicrobial susceptibility (R/S) (S. aureus MW2): S
- MIC, Minimal inhibitory concentration (S. aureus MW2): (32)^a
- Antimicrobial susceptibility (R/S) (S. aureus MW2 ΔXV): S
- MIC, Minimal inhibitory concentration (S. aureus MW2 ΔXV): (≤16)^a
- Antimicrobial susceptibility (R/S) (S. aureus 8325 ΔXV; strain 8325 ΔXV): S

Compound: Cc1onc(-c2ccccc2)c1C(=O)N[C@@H]1C(=O)N2[C@@H]1SC(C)(C)[C@@H]2C(=O)O [Oxacillin]
- Antimicrobial susceptibility (R/S) (S. aureus 8325; strain 8325): S
- Antimicrobial susceptibility (R/S) (S. aureus MW2): R
- MIC, Minimal inhibitory concentration (S. aureus MW2): (≥4)^a
- Susceptibility of MW2 ΔXV mutant compared with parental strain (S. aureus MW2 ΔXV): more susceptible
- Antimicrobial susceptibility (R/S) (S. aureus MW2 ΔXV): R
- MIC, Minimal inhibitory concentration (S. aureus MW2 ΔXV): (2)^a
- Antimicrobial susceptibility (R/S) (S. aureus 8325 ΔXV; strain 8325 ΔXV): S

Compound: CO[C@H]1/C=C/O[C@@]2(C)Oc3c(C)c(O)c4c(O)c(c(/C=N/N5CCN(C)CC5)c(O)c4c3C2=O)NC(=O)/C(C)=C\C=C\[C@H](C)[C@H](O)[C@@H](C)[C@@H](O)[C@@H](C)[C@H](OC(C)=O)[C@@H]1C [Rifampicin]
- Antimicrobial susceptibility (R/S) (S. aureus 8325; strain 8325): S
- Antimicrobial susceptibility (R/S) (S. aureus MW2): S
- Antimicrobial susceptibility (R/S) (S. aureus MW2 ΔXV): S
- Antimicrobial susceptibility (R/S) (S. aureus 8325 ΔXV; strain 8325 ΔXV): S

Compound: CN(C)c1cc(NC(=O)CNC(C)(C)C)c(O)c2c1C[C@H]1C[C@H]3[C@H](N(C)C)C(O)=C(C(N)=O)C(=O)[C@@]3(O)C(O)=C1C2=O [Tigecycline]
- Antimicrobial susceptibility (R/S) (S. aureus 8325; strain 8325): S
- Antimicrobial susceptibility (R/S) (S. aureus MW2): S
- Antimicrobial susceptibility (R/S) (S. aureus MW2 ΔXV): S
- Antimicrobial susceptibility (R/S) (S. aureus 8325 ΔXV; strain 8325 ΔXV): S

Compound: NC[C@H]1O[C@H](O[C@H]2[C@H](O)[C@@H](O[C@H]3O[C@H](CO)[C@@H](O)[C@H](N)[C@H]3O)[C@H](N)C[C@@H]2N)[C@H](N)C[C@@H]1O [Tobramycin]
- Antimicrobial susceptibility (R/S) (S. aureus 8325; strain 8325): S
- Antimicrobial susceptibility (R/S) (S. aureus MW2): S
- Antimicrobial susceptibility (R/S) (S. aureus MW2 ΔXV): S
- Antimicrobial susceptibility (R/S) (S. aureus 8325 ΔXV; strain 8325 ΔXV): S

Compound: CN[C@H](CC(C)C)C(=O)N[C@H]1C(=O)N[C@@H](CC(N)=O)C(=O)N[C@H]2C(=O)N[C@H]3C(=O)N[C@H](C(=O)N[C@H](C(=O)O)c4cc(O)cc(O)c4-c4cc3ccc4O)[C@H](O)c3ccc(c(Cl)c3)Oc3cc2cc(c3O[C@@H]2O[C@H](CO)[C@@H](O)[C@H](O)[C@H]2O[C@H]2C[C@](C)(N)[C@H](O)[C@H](C)O2)Oc2ccc(cc2Cl)[C@H]1O [Vancomycin]
- Antimicrobial susceptibility (R/S) (S. aureus 8325; strain 8325): S
- MIC, Minimal inhibitory concentration (S. aureus 8325; strain 8325): (1)^a
- Antimicrobial susceptibility (R/S) (S. aureus MW2): S
- Antimicrobial susceptibility (R/S) (S. aureus MW2 ΔXV): S
- Susceptibility of 8325 ΔXV mutant compared with parental strain (S. aureus 8325 ΔXV; 8325 ΔXV vs 8325): higher susceptibility
- Antimicrobial susceptibility (R/S) (S. aureus 8325 ΔXV; strain 8325 ΔXV): S
- MIC, Minimal inhibitory concentration (S. aureus 8325 ΔXV; strain 8325 ΔXV): (≤0.5)^a

Compound: ArlS H242A (ArlS allele that keeps phosphatase activity but cannot phosphorylate ArlR)
- Protein A expression by Western blotting in arlRS mutant [1]: The resulting strain showed a level of expression of protein A similar to that of the strain complemented with ArlR alone

Compound: ArlS histidine kinase of the arlRS two-component system of S. aureus MW2
- Protein A expression by Western blotting [1]: They first confirmed that phosphorylation of ArlR by ArlS was necessary to induce protein A expression
- Protein A expression by Western blotting in ΔXV strain complemented with arlR plus one HK [1]: In addition to ArlS itself, GraS is able to restore protein A expression in ΔXV strain

Compound: Gentamicin
- Antimicrobial susceptibility (R/S) (S. aureus 8325; strain 8325): S
- Antimicrobial susceptibility (R/S) (S. aureus MW2): S
- Antimicrobial susceptibility (R/S) (S. aureus MW2 ΔXV): S
- Antimicrobial susceptibility (R/S) (S. aureus 8325 ΔXV; strain 8325 ΔXV): S

Compound: GraS histidine kinase of the graXRS two-component system of S. aureus MW2
- Protein A expression by Western blotting in ΔXV strain complemented with arlR plus one HK [1]: In addition to ArlS itself, GraS is able to restore protein A expression in ΔXV strain
- Protein A expression by Western blotting in ΔXV strain [2]: substitution of ArlR wild type by the non-phosphorylatable ArlRD52A allele suppresses the cross-talk
- Protein A expression by Western blotting with 50 µg/ml colistin [2]: activation of protein A expression was absent when the ArlR phosphate accepting aspartate was mutated

Compound: Quinuspristin/Dalfopristin
- Antimicrobial susceptibility (R/S) (S. aureus 8325; strain 8325): S
- Antimicrobial susceptibility (R/S) (S. aureus MW2): S
- Antimicrobial susceptibility (R/S) (S. aureus MW2 ΔXV): S
- Antimicrobial susceptibility (R/S) (S. aureus 8325 ΔXV; strain 8325 ΔXV): S

Compound: Teicoplanin
- Antimicrobial susceptibility (R/S) (S. aureus 8325; strain 8325): S
- Antimicrobial susceptibility (R/S) (S. aureus MW2): S
- Antimicrobial susceptibility (R/S) (S. aureus MW2 ΔXV): S
- Antimicrobial susceptibility (R/S) (S. aureus 8325 ΔXV; strain 8325 ΔXV): S

Compound: Trimethoprim/Sulfamethoxazole
- Antimicrobial susceptibility (R/S) (S. aureus 8325; strain 8325): S
- Antimicrobial susceptibility (R/S) (S. aureus MW2): S
- Antimicrobial susceptibility (R/S) (S. aureus MW2 ΔXV): S
- Antimicrobial susceptibility (R/S) (S. aureus 8325 ΔXV; strain 8325 ΔXV): S

Compound: colistin
- Expression of protein A (arlR-dependent protein A; arlRS graSR double mutant): but not in arlRS graSR double mutant
- Expression of protein A (arlR-dependent protein A; wild type and single arlRS mutant): activation of the expression of protein A was observed

Compound: histidine kinase of the srrAB two-component system of S. aureus MW2 (SrrB by Table 1; printed 'SrrA' in the sentence)
- Protein A expression in ΔXV strain complemented with arlR plus one HK [1]: mainly GraS and to a lower level SrrA were able to activate ArlR
